This is an account of results in patent US20230340011A1 (Asteroid Therapeutics, priority 2022, published 2023).

The target of assay [1] is T1, SREBP-2 (Homo sapiens (Human), UniProt Q12772). The assay can be described thus: SREBP-2 IC50 (category A-D, Tables 1 and 3). The format is cell-based. As to conditions: Table 3, trans-AB examples.
In assay [2] the target is T1, SREBP-2. The assay can be described thus: In vitro assay SREBP-2: PathHunter U2OS SREBP-2 Nuclear Translocation Cell Line, U18666A-stimulated. As to conditions: PathHunter U2OS SREBP-2 nuclear translocation cells, U18666A 10 μM, overnight (16 hours). In kind it is cell-based.
The target in assay [3] is T2, LXRβ (Homo sapiens (Human), UniProt P55055). The assay can be described thus: LXRβ PPI (category A-D, Tables 1 and 3). In kind it is biochemical. As to conditions: Table 3, trans-AB examples.
The target of assay [4] is T2, LXRβ. The assay can be described thus: In vitro assay LXRβ: PathHunter NHR CHO cells, LXRβ / Steroid Receptor Co-activator Peptide enzyme fragment complementation. The format is cell-based. The settings on record: PathHunter NHR CHO cells, full-length human LXRβ and SRCP, chemiluminescent signal; read-out: LXRβ PPI. The method in brief: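 Co-activator recruitment measured by chemiluminescence after signal generation. The CHO line carries full-length human LXRβ tagged with ProLink and an SRCP–enzyme acceptor fusion in the nucleus; cells sat overnight at 37° C before testing, in charcoal-dextran filtered serum medium with 1% final vehicle.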

pEC50, pIC50: −log10 of the molar value.

T2 sequence (P55055 whole entry, the tested form may be a part): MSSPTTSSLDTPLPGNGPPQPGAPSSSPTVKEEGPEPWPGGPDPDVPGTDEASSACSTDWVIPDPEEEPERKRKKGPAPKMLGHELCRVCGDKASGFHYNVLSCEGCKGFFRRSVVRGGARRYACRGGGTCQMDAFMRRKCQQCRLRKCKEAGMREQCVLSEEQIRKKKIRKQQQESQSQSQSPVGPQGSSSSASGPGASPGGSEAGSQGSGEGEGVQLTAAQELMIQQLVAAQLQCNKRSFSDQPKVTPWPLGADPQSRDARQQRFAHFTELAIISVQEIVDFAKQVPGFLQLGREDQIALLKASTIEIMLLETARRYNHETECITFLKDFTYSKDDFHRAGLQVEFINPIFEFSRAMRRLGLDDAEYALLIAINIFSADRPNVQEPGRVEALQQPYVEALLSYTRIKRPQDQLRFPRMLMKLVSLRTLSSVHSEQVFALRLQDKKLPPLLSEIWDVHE

Turning to `C[C@H](CCC(=O)N(C)C)[C@H]1CC[C@H]2[C@@H]3CC[C@H]4C[C@@H](O)CC[C@]4(C)[C@H]3[C@@H](O)C[C@]12C` [Example T5, (R)-4-((3S,5S,8S,9S,10S,11S,13R,14S,17R)-3,11-dihydroxy-10,13-dimethylhexadecahydro-1H-cyclopenta[a]phenanthren-17-yl)-N, N-dimethylpentanamide], the negative logarithm of the IC50 (pIC50) in assay [1] was 6.00 to 6.60.
With `C[C@H](CC[C@@](O)(C1CC1)C(F)(F)F)[C@H]1CC[C@H]2[C@@H]3CC=C4C[C@@H](O)CC[C@]4(C)[C@H]3CC[C@]12C` [Example 24, (3S,8S,9S,10R,13R,14S,17R)-17-((2R,5R)-5-cyclopropyl-6,6,6-trifluoro-5-hydroxyhexan-2-yl)-10,13-dimethyl-2,3,4,7,8,9,10,11,12,13,14,15,16,17-tetradecahydro-1H-cyclopenta(a)phenanthren-3-ol], the negative-log IC50 (pIC50) in assay [1] and in assay [2] was 6.00 to 6.60 throughout.
In the case of `CC[C@@](O)(CC[C@@H](C)[C@H]1CC[C@H]2[C@@H]3CC=C4C[C@@H](O)CC[C@]4(C)[C@H]3CC[C@]12C)C(F)(F)F` [Example 21, (3S,8S,9S,10R,13R,14S,17R)-17-((2R,5R)-5-hydroxy-5-(trifluoromethyl)heptan-2-yl)-10,13-dimethyl-2,3,4,7,8,9,10,11,12,13,14,15,16,17-tetradecahydro-1H-cyclopenta(a)phenanthren-3-ol], the “LXRβ PPI” value in assay [3] is listed as “C (1000-10000 nM)”. In addition, the pIC50 in assay [1] and in assay [2] was over 6.60 throughout.
On to “(R)-4-((3S,8S,9S,10R,13R,14S,17R)-3-hydroxy-10,13-dimethyl-2,3,4,7,8,9,10,11,12,13,14,15,16,17-tetradecahydro-1H-cyclopenta[a]phenanthren-17-yl)-N-methyl-N-propoxypentanamide [Example 12]”, for which the “LXRβ PPI” value in assay [3] is listed as “D (>10000 nM)”. The compound further had a pIC50 in assay [1] of over 6.60.
As to `C[C@H](CC[C@@](O)(C1CCC1)C(F)(F)F)[C@H]1CC[C@H]2[C@@H]3CC=C4C[C@@H](O)CC[C@]4(C)[C@H]3CC[C@]12C` [Example 26, (3S,8S,9S,10R,13R,14S,17R)-17-((2R,5R)-5-cyclobutyl-6,6,6-trifluoro-5-hydroxyhexan-2-yl)-10,13-dimethyl-2,3,4,7,8,9,10,11,12,13,14,15,16,17-tetradecahydro-1H-cyclopenta[a]phenanthren-3-ol], the “LXRβ PPI” value in assay [3] is given as “B (250 nM-1000 nM)”. Further, the pIC50 in assay [1] and in assay [2] was 6.00 to 6.60 in each case.
Consider `C[C@H](CC[C@](O)(C1CC1)C(F)(F)F)[C@H]1CC[C@H]2[C@@H]3CC=C4C[C@@H](O)CC[C@]4(C)[C@H]3CC[C@]12C` [Example 23, (3S,8S,9S,10R,13R,14S,17R)-17-((2R,5s)-5-cyclopropyl-6,6,6-trifluoro-5-hydroxyhexan-2-yl)-10,13-dimethyl-2,3,4,7,8,9,10,11,12,13,14,15,16,17-tetradecahydro-1H-cyclopenta(a)phenanthren-3-ol], for which the “LXRβ PPI” value in assay [3] is “A (<1 nM to 250 nM)”. In addition, the pIC50 in assay [1] and in assay [2] was over 6.60 in each case.
On to `CC[C@](O)(CC[C@@H](C)[C@H]1CC[C@H]2[C@@H]3CC=C4C[C@@H](O)CC[C@]4(C)[C@H]3CC[C@]12C)C(F)(F)F` [Example 22, (3S,8S,9S,10R,13R,14S,17R)-17-((2R,5S)-5-hydroxy-5-(trifluoromethyl)heptan-2-yl)-10,13-dimethyl-2,3,4,7,8,9,10,11,12,13,14,15,16,17-tetradecahydro-1H-cyclopenta(a)phenanthren-3-ol], for which the “LXRβ PPI” value in assay [3] is listed as “B (250 nM-1000 nM)”. In addition, the negative logarithm of the IC50 (pIC50) in assay [1] was over 6.60; in assay [2], 6.00 to 6.60.
`CCON(C)C(=O)CC[C@@H](C)[C@H]1CC[C@H]2[C@@H]3CC=C4C[C@@H](O)CC[C@]4(C)[C@H]3CC[C@]12C` [Example 10, (R)—N-ethoxy-4-((3S,8S,9S,10R,13R,14S,17R)-3-hydroxy-10,13-dimethyl-2,3,4,7,8,9,10,11,12,13,14,15,16,17-tetradecahydro-1H-cyclopenta[a]phenanthren-17-yl)-N-methylpentanamide]: the “LXRβ PPI” value in assay [3] was “B (250 nM-1000 nM)”. Moreover, the negative-log IC50 (pIC50) in assay [1] and in assay [2] was over 6.60 each time.
For the compound `CCC1(O)CCN(C(=O)CC[C@@H](C)[C@H]2CC[C@H]3[C@@H]4CC[C@H]5C[C@@H](O)CC[C@]5(C)[C@H]4[C@@H](O)C[C@]23C)CC1` [Example T7, (R)-4-((3S,5S,8S,9S,10S,11S,13R,14S,17R)-3,11-dihydroxy-10,13-dimethylhexadecahydro-1H-cyclopenta[a]phenanthren-17-yl)-1-(4-ethyl-4-hydroxypiperidin-1-yl)pentan-1-one], the pIC50 in assay [1] was 6.00 to 6.60.
`CCOc1nccc(N2CCN(C(=O)CC[C@@H](C)[C@H]3CC[C@H]4[C@@H]5CC=C6C[C@@H](O)CC[C@]6(C)[C@H]5CC[C@]34C)CC2)n1` [Example 563, (R)-1-(4-(2-ethoxypyrimidin-4-yl)piperazin-1-yl)-4-((3S,8S,9S,10R,13R,14S,17R)-3-hydroxy-10,13-dimethyl-2,3,4,7,8,9,10,11,12,13,14,15,16,17-tetradecahydro-1H-cyclopenta[a]phenanthren-17-yl)pentan-1-one]: the pEC50 in assay [4] is under 5.00. In assay [2], this compound showed a pIC50 of over 6.60.
For the compound `Cc1cnc(CC[C@@H](C)[C@H]2CC[C@H]3[C@@H]4CC=C5C[C@@H](O)CC[C@]5(C)[C@H]4CC[C@]23C)nc1` [Example 192, (3S,8S,9S,10R,13R,14S,17R)-10,13-dimethyl-17-((R)-4-(5-methylpyrimidin-2-yl)butan-2-yl)-2,3,4,7,8,9,10,11,12,13,14,15,16,17-tetradecahydro-1H-cyclopenta[a]phenanthren-3-ol], in assay [4], the pEC50 was under 5.00. In assay [2], this compound gave a pIC50 of over 6.60.
For the compound `C[C@H](COc1ncccc1CO)[C@H]1CC[C@H]2[C@@H]3CC=C4C[C@@H](O)CC[C@]4(C)[C@H]3CC[C@]12C` [Example 257, (3S,8S,9S,10R,13S,14S,17R)-17-((S)-1-((3-(hydroxymethyl)pyridin-2-yl)oxy)propan-2-yl)-10,13-dimethyl-2,3,4,7,8,9,10,11,12,13,14,15,16,17-tetradecahydro-1H-cyclopenta[a]phenanthren-3-ol], the pEC50 in assay [4] is under 5.00. Further, the pIC50 in assay [2] was over 6.60.
Turning to `C[C@H](CCC(=O)N1CCN(C(=O)c2ncnn2C)CC1)[C@H]1CC[C@H]2[C@@H]3CC=C4C[C@@H](O)CC[C@]4(C)[C@H]3CC[C@]12C` [Example 382, (R)-4-((3S,8S,9S,10R,13R,14S,17R)-3-hydroxy-10,13-dimethyl-2,3,4,7,8,9,10,11,12,13,14,15,16,17-tetradecahydro-1H-cyclopenta[a]phenanthren-17-yl)-1-(4-(1-methyl-1H-1,2,4-triazole-5-carbonyl)piperazin-1-yl)pentan-1-one], the pEC50 in assay [4] was under 5.00. In assay [2], this compound gave a pIC50 of over 6.60.
For `C[C@H](CCc1cnccn1)[C@H]1CC[C@H]2[C@@H]3CC=C4C[C@@H](O)CC[C@]4(C)[C@H]3CC[C@]12C` [Example 136, (3S,8S,9S,10R,13R,14S,17R)-10,13-dimethyl-17-((R)-4-(pyrazin-2-yl)butan-2-yl)-2,3,4,7,8,9,10,11,12,13,14,15,16,17-tetradecahydro-1H-cyclopenta[a]phenanthren-3-ol], the pEC50 in assay [4] is 6.00 to 6.60. Further, in assay [2], the negative logarithm of the IC50 (pIC50) is over 6.60.
For the compound `C[C@H](CCC(=O)N1CCN(C(=O)c2cnn(C)c2)[C@@H](C)C1)[C@H]1CC[C@H]2[C@@H]3CC=C4C[C@@H](O)CC[C@]4(C)[C@H]3CC[C@]12C` [Example 565, (4R)-4-[(1R,3aS,3bS,7S,9aR,9bS,11aR)-7-hydroxy-9a,11a-dimethyl-1H,2H,3H,3aH,3bH,4H,6H,7H,8H,9H,9aH,9bH,10H,11H,11aH-cyclopenta[a]phenanthren-1-yl]-1-[(3S)-3-methyl-4-(1-methyl-1H-pyrazole-4-carbonyl)piperazin-1-yl]pentan-1-one], the pEC50 in assay [4] was under 5.00. This compound had a pIC50 in assay [2] of over 6.60.
As for `COc1cncnc1N1CCN(C(=O)CC[C@@H](C)[C@H]2CC[C@H]3[C@@H]4CC=C5C[C@@H](O)CC[C@]5(C)[C@H]4CC[C@]23C)C[C@@H]1C` [Example 615, (R)-4-((3S,8S,9S,10R,13R,14S,17R)-3-hydroxy-10,13-dimethyl-2,3,4,7,8,9,10,11,12,13,14,15,16,17-tetradecahydro-1H-cyclopenta[a]phenanthren-17-yl)-1-((S)-4-(5-methoxypyrimidin-4-yl)-3-methylpiperazin-1-yl)pentan-1-one], the pEC50 in assay [4] was under 5.00. The pIC50 in assay [2] was over 6.60.
Consider `C[C@H](CCC(=O)N1CCC(OC(=O)N(C)C)CC1)[C@H]1CC[C@H]2[C@@H]3CC=C4C[C@@H](O)CC[C@]4(C)[C@H]3CC[C@]12C` [Example 286, 1-((R)-4-((3S,8S,9S,10R,13R,14S,17R)-3-hydroxy-10,13-dimethyl-2,3,4,7,8,9,10,11,12,13,14,15,16,17-tetradecahydro-1H-cyclopenta[a]phenanthren-17-yl)pentanoyl)piperidin-4-yl dimethylcarbamate], for which the pEC50 in assay [4] was under 5.00. In assay [2], this compound had a pIC50 of over 6.60.
As for `CON(CCO)C(=O)CC[C@@H](C)[C@H]1CC[C@H]2[C@@H]3CC=C4C[C@@H](O)CC[C@]4(C)[C@H]3CC[C@]12C` [Example 62, (R)-4-((3S,8S,9S,10R,13R,14S,17R)-3-hydroxy-10,13-dimethyl-2,3,4,7,8,9,10,11,12,13,14,15,16,17-tetradecahydro-1H-cyclopenta[a]phenanthren-17-yl)-N-(2-hydroxyethyl)-N-methoxypentanamide], in assay [4], the pEC50 was 6.00 to 6.60. Also, the pIC50 in assay [2] was 6.00 to 6.60.
